Measurements: patent US4943595A, “Perfluorochemicals and process for preparing the same” (The Green Cross Corporation, priority 1984, dated 1990)

Assay: Vapor pressure of the perfluorochemical
Conditions: 37.5° C.

Compound	Vapor pressure
FC(F)(F)C(F)(F)C(F)(OC(F)(F)C(F)(F)C(F)(C(F)(F)F)C(F)(F)F)C(F)(C(F)(F)F)C(F)(F)F (stereo not drawn) [Ex. 6, Perfluoro-3-isopentoxy-2-methylpentane]	8-9 mmHg
FC(F)(F)C(F)(F)C(F)(OC(F)(F)C(F)(C(F)(F)F)C(F)(F)F)C(F)(C(F)(F)F)C(F)(F)F (stereo not drawn) [Ex. 4, Perfluoro-3-isobutoxy-2-methyl pentane]	14-15 mmHg
FC(F)(F)C(F)(F)C(F)(OC(F)(C(F)(F)F)C(F)(F)F)C(F)(C(F)(F)F)C(F)(F)F (stereo not drawn) [Ex. 2, Perfluroo-3-isopropoxy-2-methylpentane]	35-36 mmHg
FC(F)(F)C(F)(F)C(F)(F)C(F)(F)OC(F)(C(F)(F)C(F)(F)F)C(F)(C(F)(F)F)C(F)(F)F (stereo not drawn) [Ex. 3, Perfluoro-3-n-butoxy-methylpentane]	11-13 mmHg
FC(F)(F)C(F)(F)C(F)(OC(F)(C(F)(F)C(F)(F)F)C(F)(C(F)(F)F)C(F)(F)F)C(F)(F)F (stereo not drawn) [Ex. 5, Perfluoro-3-sec-butoxy-2-methylpentane]	13-14 mmHg

Same assay, conditions: 38° C.

Compound	Vapor pressure
FC(F)(F)N(C(F)(F)F)C(F)(F)C(F)(C(F)(F)F)C(F)(F)C(F)(C(F)(F)F)C(F)(F)F (stereo not drawn) [Example 36, Perfluoro-1-dimethylamino-2,4-dimethylpentane]	18-19 mmHg
FC(F)(F)C(F)(F)C(F)(F)C(F)(F)OC(F)(F)C(F)(F)C(F)(F)C(F)(F)C(F)(F)C(F)(F)C(F)(F)F [Ex. 21, Perfluoro-1-n-butoxyheptane]	8-9 mmHg
FC(F)(F)OC(OC(F)(F)C(F)(F)C(F)(F)C(F)(F)C(F)(F)F)(C(F)(F)F)C(F)(F)F [Example 30, perfluoro-2-pentoxy-2-methoxypropane]	28-29 mmHg
FC(F)(F)N(C(F)(F)C(F)(F)C(F)(F)F)C(C(F)(F)F)(C(F)(F)F)C(F)(F)C(F)(F)C(F)(F)F [Example 40, perfluoro-2-methylpropylamino-2-methylpentane]	9-10 mmHg
FC(F)(F)N(C(F)(F)F)C(F)(C(F)(F)C(F)(F)F)C(F)(C(F)(F)F)C(F)(F)F (stereo not drawn) [Example 42, 3-perfluoro-3-dimethylamino-2-methylpentane]	37-38 mmHg
FC(F)(F)N(C(F)(F)F)C(F)(F)C(F)(C(F)(F)F)C(F)(F)C(F)(F)C(F)(F)F (stereo not drawn) [Example 33, perfluoro-1-dimethylamino-2-methylpentane]	37-38 mmHg
FC(F)(F)C(F)(F)OC(F)(C(F)(F)F)C(F)(F)C(C(F)(F)F)(C(F)(F)C(F)(F)F)C(F)(F)C(F)(F)F (stereo not drawn) [Example 25, perfluoro-2-ethoxy-4-ethyl-4-methylhexane]	8-9 mmHg
FC(F)(F)C(F)(F)C(F)(F)C(OC(F)(C(F)(F)F)C(F)(F)C(F)(F)F)(C(F)(F)F)C(F)(F)F (stereo not drawn) [Ex. 16, Perfluoro-2-sec-butoxy-2-methylpentane]	15-16 mmHg
FC(F)(F)C(F)(F)C(F)(F)C(F)(F)C(F)(F)C(F)(F)C(F)(F)OC(F)(C(F)(F)F)C(F)(F)C(F)(F)F (stereo not drawn) [Ex. 23, Perfluoro-1-sec-butoxyheptane]	9-10 mmHg
FC(F)(F)C(F)(F)C(F)(F)OC(C(F)(F)F)(C(F)(F)F)C(F)(F)C(F)(F)C(F)(F)F [Example 12, Perfluoro-2-n-propoxy-2-methylpentane]	33 mmHg
FC(F)(F)N(C(F)(F)F)C(F)(F)C(C(F)(F)F)(C(F)(F)F)C(F)(F)C(F)(F)C(F)(F)F [Example 41, Perfluoro-1-dimethylamino-2,2-dimethylpentane]	18-19 mmHg
FC(F)(F)C(F)(F)N(C(F)(F)C(F)(F)F)C(F)(F)C(F)(C(F)(F)F)C(F)(F)C(F)(F)C(F)(F)F (stereo not drawn) [Example 35, perfluoro-1-diethylamino-2-methylpentane]	8-9 mmHg
FC(F)(F)C(F)(F)C(F)(F)C(OC(F)(C(F)(F)F)C(F)(F)F)(C(F)(F)F)C(F)(F)F [Ex. 13, Perfluoro-2-isopropoxy-2-methylpentane]	29-30 mmHg
FC(F)(F)C(F)(F)C(F)(F)OC(F)(C(F)(F)C(F)(F)F)C(F)(C(F)(F)F)C(F)(F)F (stereo not drawn) [Example 1, perfluoro-3-n-propoxy-2-methylpentane]	29 mmHg
FC(F)(F)C(F)(F)N(C(F)(F)C(F)(F)F)C(F)(C(F)(F)C(F)(F)F)C(F)(C(F)(F)F)C(F)(F)F (stereo not drawn) [Example 43, perfluoro-3-diethylamino-2-methylpentane]	9-10 mmHg
FC(F)(F)OC(F)(C(F)(F)F)C(F)(F)C(C(F)(F)F)(C(F)(F)C(F)(F)F)C(F)(F)C(F)(F)F (stereo not drawn) [Example 24, perfluoro-2-methoxy-4-ethyl-4-methylhexane]	17-18 mmHg
FC(F)(F)C(F)(F)C(F)(F)C(OC(F)(F)C(F)(F)C(F)(C(F)(F)F)C(F)(F)F)(C(F)(F)F)C(F)(F)F [Ex. 17, Perfluoro-2-isovaleroxy-2-methylpentane]	9-10 mmHg
FC(F)(F)N(C(F)(F)C(F)(F)F)C(C(F)(F)F)(C(F)(F)F)C(F)(F)C(F)(F)C(F)(F)F [Example 39, Perfluoro-2-methylethylamino-2-methylpentane]	20-21 mmHg
FC(F)(F)C(F)(F)C(F)(F)C(F)(F)OC(F)(C(F)(C(F)(F)F)C(F)(F)F)C(F)(C(F)(F)F)C(F)(F)F [Ex. 10, Perfluoro-3-n-butoxy-2,4-dimethylpentane]	8-9 mmHg
FC(F)(F)OC(F)(F)C(F)(C(F)(F)F)C(F)(OC(F)(F)F)C(F)(F)C(F)(F)F (stereo not drawn) [Example 29, perfluoro-1,3-dimethoxy-2-methylpentane]	48-50 mmHg
FC(F)(F)C(F)(F)C(F)(F)C(OC(F)(F)C(F)(C(F)(F)F)C(F)(F)F)(C(F)(F)F)C(F)(F)F [Ex. 15, Perfluoro-2-isobutoxy-2-methylpentane]	15-16 mmHg
FC(F)(F)C(F)(C(F)(F)F)C(F)(F)OC(F)(C(F)(C(F)(F)F)C(F)(F)F)C(F)(C(F)(F)F)C(F)(F)F [Ex. 11, Perfluoro-3-isobutoxy-2,4-dimethylpentane]	8-9 mmHg
FC(F)(F)C(F)(F)OC(F)(C(F)(F)F)C(F)(C(F)(C(F)(F)F)C(F)(F)F)C(F)(C(F)(F)F)C(F)(F)F (stereo not drawn) [Example 27, perfluoro-2-ethoxy-3-isopropyl-4-methylpentane]	10-11 mmHg
FC(F)(F)C(F)(F)OC(F)(C(F)(C(F)(F)F)C(F)(F)F)C(F)(C(F)(F)F)C(F)(F)F [Ex. 8, Perfluoro-3-ethoxy-2,4-dimethylpentane]	30-31 mmHg
FC(F)(F)C(F)(F)C(F)(F)OC(OC(F)(F)C(F)(F)C(F)(F)F)(C(F)(F)F)C(F)(F)F [Example 32, perfluoro-2,2-di-n-propoxy-propane]	29-30 mmHg
FC(F)(F)C(F)(F)C(F)(F)C(F)(F)OC(C(F)(F)F)(C(F)(F)F)C(F)(F)C(F)(F)C(F)(F)F [Ex. 14, Perfluoro-2-n-butoxy-2-methylpentane]	13-14 mmHg
FC(F)(F)N(C(F)(F)F)C(C(F)(F)F)(C(F)(F)F)C(F)(F)C(F)(F)C(F)(F)F [Example 38, perfluoro-2-dimethylamino-2-methylpentane]	37-38 mmHg
FC(F)(F)OC(F)(C(F)(F)F)C(F)(C(F)(C(F)(F)F)C(F)(F)F)C(F)(C(F)(F)F)C(F)(F)F (stereo not drawn) [Example 26, perfluoro-2-methoxy-3-isopropyl-4-methylpentane]	18-19 mmHg
